The source of these data is patent US5266596A, “L- or DL-threo-3-(3,4-dihydroxyphenyl)serine for the treatment of urinary incontinence” (priority 1991, dated 1993).

Some results are limits rather than exact numbers.

Data set [1] deals with circulating system. The note with it: cited from earlier work.
The conditions of data set [2]: in vivo; cited from earlier work.
Data set [3] has as its system Harmalin-induced tremor. The settings on record: in vivo; cited from earlier work.
In data set [4] the test system is patients with urinary incontinence. The experiment in a line: Clinical test of L-threo-DOPS in patients with urinary incontinence (clinical effect and side effects). Type of data set: in vivo, human. As for the experimental part:
L-Threo-DOPS was administered (100 mg×3 times, a 4 weeks) to 13 patients with urinary incontinence in the clinic of urology. For estimating the effect on urinary incontinence and side effects, the patients were investigated medically before and after the treatment with L-Threo-Dops. […] Further, by urodynamic study, the patients were classified into urgent urinary incontinence (7 patients), stress urinary incontinence (3 patients) and other condition (3 patients).

For data set [5], the system named is aromatic L-amino acid decarboxylase. The note with it: cited from earlier work.
Data set [6] has as its system urinary bladder. The experiment in a line: Inner pressure of urinary bladder and urethra measured before and after administration (urodynamics). The note with it: some cases. Type of data set: in vivo, human.
Method: L-Threo-DOPS was administered (100 mg×3 times, a 4 weeks) to 13 patients with urinary incontinence in the clinic of urology. For estimating the effect on urinary incontinence and side effects, the patients were investigated medically before and after the treatment with L-Threo-Dops. The patients were 6 males and 7 females in the range of 35 to 76 years old, and were 51.8 years old in average. Further, by urodynamic study, the patients were classified into urgent urinary incontinence (7 patients), stress urinary incontinence (3 patients) and other condition (3 patients).
Data set [7] can be described thus: Acute toxicity (LD50) in mouse. The note with it: in vivo.
In data set [8] the test system is patients. The note with it: conventional use; cited from earlier work.
Setting [9] is: all 13 patients, 100 mg×3 times, 4 weeks.
Setting [10] is: all of the cases, summary statement.

For orientation: LD50 means the dose expected to kill half of the subjects tested. Lower therefore signals a more toxic substance.

Turning to `NC[C@H](O)c1ccc(O)c(O)c1` [1-NA, 1-noradrenaline], the Duration result in data set [1] (after injection) is “shorter, rather instantaneous”. Also, in data set [1] (immediately after injection), the “Effects on circulating system” value is “drastic effects on circulating system to cause hypertension and palpitation”.
`N[C@H](C(=O)O)[C@H](O)c1ccc(O)c(O)c1` (relative stereo) [DL- or L-threo-DOPS, DL- or L-threo-3-(3,4-dihydroxyphenyl)serine]: in data set [2], the “Conversion into 1-NA after administration” value is on record as “gradually converted into 1-NA”; the Distribution after administration result is “distributed both centrally and peripherally”.
Regarding `N[C@H](C(=O)O)[C@H](O)c1ccc(O)c(O)c1` [L-threo-DOPS, L-threo-3-(3,4-dihydroxyphenyl)serine], the “Action on Harmalin-induced tremor” value in data set [3] was “inhibitory action on Harmalin-induced tremor”. For the same molecule, the Side effect result in data set [4] (Case 1, 300 mg/day × 4 weeks) is “None”; in data set [4] (Case 2, 300 mg/day × 4 weeks), “None”; in data set [4] (Case 3, 300 mg/day × 4 weeks), “None”; in data set [4] (Case 4, 300 mg/day × 4 weeks) it was “None”; in data set [4] (Case 5, 300 mg (3) × 4 weeks) it was “None”; in data set [4] (Case 6, 300 mg (3) × 4 weeks), “None”. Besides, the Side effect entry is listed as “None” in data set [4] (Case 7, 300 mg (3) × 4 weeks); “None” in data set [4] (Case 8, 300 mg (3) × 4 weeks); “None” in data set [4] (Case 9, 300 mg/day × 4 weeks); “None” in data set [4] (Case 10, 300 mg/day × 4 weeks); “None” in data set [4] (Case 11, 300 mg/day × 4 weeks); “None” in data set [4] (Case 12, 300 mg/day × 4 weeks). Moreover, in data set [4] (Case 13, 300 mg/day × 4 weeks), the Side effect entry was “None”. Moreover, the Clinical effect result in data set [4] (Case 7, urgent urinary incontinence, 300 mg (3) × 4 weeks) is listed as “improved”; in data set [4] (Case 8, stress incontinence, 300 mg (3) × 4 weeks), “improved”; in data set [4] (Case 9, stress incontinence, 300 mg/day × 4 weeks) it was “Improved”; in data set [4] (Case 13, Enuresis, 300 mg/day × 4 weeks), “Improved”. Further, in data set [4] (setting [9]), the “Cases with disappearance of the symptoms or improvement to a moderate degree or more, total” value came to 9 cases. For the same molecule, the “Remaining cases in which L-threo-DOPS was almost ineffective” value in data set [4] (setting [9]) amounted to 4 cases. The “Side effects such as urine discharge disturbance, palpitation and hypertension” value in data set [4] (all cases, 100 mg×3 times, 4 weeks) is “not noted”. Also, in data set [4] (setting [10]), the Side effects result was “no side effects were noted”. Besides, the Tendency of dysuria entry in data set [4] (setting [10]) is “even tendency of dysuria was not noted”. Besides, the “Cases with clinical effect of more than a slight improvement” value in data set [4] (all patients, 100 mg×3 times, 4 weeks) was 10 out of 13. The “Cases with disappearance of the symptoms or improvement to a moderate degree or more” value is recorded as 2 out of 3 in data set [4] (other condition, 100 mg×3 times, 4 weeks); 2 out of 3 in data set [4] (stress urinary incontinence, 100 mg×3 times, 4 weeks); 5 out of 7 in data set [4] (urgent urinary incontinence, 100 mg×3 times, 4 weeks). In addition, the Patient satisfaction entry in data set [4] (patients improved, 100 mg×3 times, 4 weeks) is on record as “highly satisfactory”. Also, the “Effect on urinary incontinence” value in data set [4] (summary statement) is on record as “excellent effect on urinary incontinence”. In addition, in data set [5], the “Decarboxylation by aromatic L-amino acid decarboxylase to natural 1-noradrenaline” value was “undergo decarboxylation by the action of aromatic L-amino acid decarboxylase to produce natural 1-noradrenaline”. The “Volume of the urinary bladder” value in data set [6] was “increased volume of the urinary bladder was confirmed”.
Regarding `N[C@H](C(=O)O)[C@H](O)c1ccc(O)c(O)c1` (relative stereo) [active ingredient, DL- or L-threo-3-(3,4-dihydroxyphenyl)serine], the LD50 in data set [7] (ip, intraperitoneal) is approximately 10000 mg/kg; in data set [7] (oral), not below 10000 mg/kg.
As for `CN(C)CCCN1c2ccccc2CCc2ccccc21` [Imipramine], the Side effects result in data set [8] is “side effects such as thirst, constipation and nasal obstruction”.
